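Where inhibition never reached the appropriate level, the endpoint shown equals the highest concentration tested. Otherwise, values were interpolated linearly from a five-concentration, 48-hour dose response in 96-well plates. GI50 is the concentration that inhibits growth by half.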 Activity calls are given as the source filed them. No stated cut-off is given here; in the data, active = GI50 up to about 1.1 µM and inactive = higher.
How the values were obtained:
Test in all cases: inhibition of tumour cell growth, NCI panel, 48 h
UACC-62 = tested on: UACC-62
OVCAR-4 = tested on: OVCAR-4
SNB-75 = tested on: SNB-75
U-251 = tested on: U-251
SF-539 = tested on: SF-539
LOX IMVI = tested on: LOX IMVI
MDA-MB-231 = tested on: MDA-MB-231
HCT-116 = tested on: HCT-116
HL-60 = tested on: HL-60
ACHN = tested on: ACHN
M14 = tested on: M14
NCI-H226 = tested on: NCI-H226
DU-145 = tested on: DU-145
OVCAR-5 = tested on: OVCAR-5
COLO 205 = tested on: COLO 205
HCC 2998 = tested on: HCC 2998
RPMI-8226 = tested on: RPMI-8226
SK-MEL-2 = tested on: SK-MEL-2
Malme-3M = tested on: Malme-3M
SK-OV-3 = tested on: SK-OV-3
RXF 393 = tested on: RXF 393
OVCAR-3 = tested on: OVCAR-3
TK-10 = tested on: TK-10
NCI-H460 = tested on: NCI-H460
K562 = tested on: K562
EKVX = tested on: EKVX
NCI/ADR-RES = tested on: NCI/ADR-RES
SF-295 = tested on: SF-295
UO-31 = tested on: UO-31
SK-MEL-28 = tested on: SK-MEL-28
SW-620 = tested on: SW-620
CAKI-1 = tested on: CAKI-1
SNB-19 = tested on: SNB-19
SK-MEL-5 = tested on: SK-MEL-5
BT-549 = tested on: BT-549
SF-268 = tested on: SF-268
NCI-H522 = tested on: NCI-H522
MDA-MB-435 = tested on: MDA-MB-435
MOLT-4 = tested on: MOLT-4
HCT-15 = tested on: HCT-15
A498 = tested on: A498
SR = tested on: SR
KM12 = tested on: KM12
MCF7 = tested on: MCF7
PC-3 = tested on: PC-3
HT-29 = tested on: HT-29
T47D = tested on: T47D
HOP-92 = tested on: HOP-92
A549 = tested on: A549
IGROV-1 = tested on: IGROV-1
786-0 = tested on: 786-0
HOP-62 = tested on: HOP-62
NCI-H23 = tested on: NCI-H23
MDA-N = tested on: MDA-N
SN12C = tested on: SN12C
CCRF-CEM = tested on: CCRF-CEM
UACC-257 = tested on: UACC-257
OVCAR-8 = tested on: OVCAR-8
Hs-578T = tested on: Hs-578T

Measured: GI50

CCC(O)c1ccc(/N=C/c2ccccc2O)cc1 (configuration not stated)
inactive: UACC-62 > 100 µM | OVCAR-4 > 100 µM | SNB-75 > 100 µM | U-251 > 100 µM | SF-539 > 100 µM | LOX IMVI > 100 µM | MDA-MB-231 > 100 µM | HCT-116 74.1 µM | HL-60 > 100 µM | ACHN > 100 µM | M14 > 100 µM | NCI-H226 > 100 µM | DU-145 > 100 µM | OVCAR-5 > 100 µM | COLO 205 49.9 µM | HCC 2998 > 100 µM | RPMI-8226 > 100 µM | SK-MEL-2 > 100 µM | Malme-3M > 100 µM | SK-OV-3 > 100 µM | RXF 393 > 100 µM | OVCAR-3 > 100 µM | TK-10 > 100 µM | NCI-H460 > 100 µM | K562 > 100 µM | EKVX > 100 µM | NCI/ADR-RES > 100 µM | SF-295 > 100 µM | UO-31 > 100 µM | SK-MEL-28 > 100 µM | SW-620 > 100 µM | CAKI-1 > 100 µM | SNB-19 > 100 µM | SK-MEL-5 > 100 µM | BT-549 > 100 µM | SF-268 > 100 µM | NCI-H522 > 100 µM | MDA-MB-435 > 100 µM | MOLT-4 > 100 µM | A498 > 100 µM | SR 90.2 µM | KM12 > 100 µM | MCF7 > 100 µM | PC-3 > 100 µM | HT-29 > 100 µM | T47D 8.97 µM | HOP-92 > 100 µM | A549 > 100 µM | IGROV-1 > 100 µM | 786-0 > 100 µM | HOP-62 > 100 µM | NCI-H23 > 100 µM
> 100 µM: HCT-15

COc1ccc(C(O)c2nccn2C)c(OC)c1 (configuration not stated)
inactive: UACC-62 > 100 µM | OVCAR-4 > 100 µM | SNB-75 29.6 µM | U-251 > 100 µM | SF-539 > 100 µM | HCT-116 > 100 µM | HL-60 > 100 µM | ACHN > 100 µM | M14 > 100 µM | NCI-H226 > 100 µM | DU-145 > 100 µM | OVCAR-5 > 100 µM | COLO 205 > 100 µM | HCC 2998 > 100 µM | RPMI-8226 > 100 µM | SK-MEL-2 > 100 µM | Malme-3M > 100 µM | SK-OV-3 17.4 µM | MDA-N > 100 µM | RXF 393 > 100 µM | OVCAR-3 > 100 µM | TK-10 > 100 µM | NCI-H460 > 100 µM | SN12C > 100 µM | K562 > 100 µM | EKVX > 100 µM | NCI/ADR-RES > 100 µM | SF-295 > 100 µM | UO-31 > 100 µM | SK-MEL-28 > 100 µM | SW-620 > 100 µM | CAKI-1 > 100 µM | SNB-19 > 100 µM | SK-MEL-5 86.3 µM | BT-549 > 100 µM | SF-268 > 100 µM | NCI-H522 > 100 µM | MOLT-4 > 100 µM | CCRF-CEM > 100 µM | SR > 100 µM | KM12 > 100 µM | UACC-257 > 100 µM | MCF7 > 100 µM | PC-3 > 100 µM | HT-29 > 100 µM | HOP-92 > 100 µM | A549 > 100 µM | IGROV-1 > 100 µM | 786-0 > 100 µM | HOP-62 > 100 µM | OVCAR-8 > 100 µM | NCI-H23 > 100 µM
> 100 µM: HCT-15

CC(C)(C)c1cc[n+](C[n+]2ccc(C(C)(C)C)cc2)cc1
> 100 µM: HCT-15
inactive: UACC-62 > 100 µM | OVCAR-4 > 100 µM | SNB-75 > 100 µM | U-251 > 100 µM | SF-539 > 100 µM | MDA-MB-231 > 100 µM | HCT-116 > 100 µM | HL-60 > 100 µM | ACHN > 100 µM | M14 > 100 µM | NCI-H226 > 100 µM | DU-145 > 100 µM | OVCAR-5 > 100 µM | COLO 205 > 100 µM | HCC 2998 > 100 µM | RPMI-8226 > 100 µM | SK-MEL-2 > 100 µM | Malme-3M > 100 µM | SK-OV-3 > 100 µM | MDA-N > 100 µM | RXF 393 > 100 µM | OVCAR-3 > 100 µM | TK-10 > 100 µM | NCI-H460 > 100 µM | SN12C > 100 µM | K562 > 100 µM | EKVX > 100 µM | NCI/ADR-RES > 100 µM | SF-295 > 100 µM | UO-31 > 100 µM | SK-MEL-28 > 100 µM | SW-620 > 100 µM | CAKI-1 > 100 µM | SNB-19 > 100 µM | SK-MEL-5 > 100 µM | SF-268 > 100 µM | NCI-H522 > 100 µM | MDA-MB-435 > 100 µM | MOLT-4 > 100 µM | CCRF-CEM > 100 µM | A498 53.6 µM | SR > 100 µM | Hs-578T > 100 µM | KM12 > 100 µM | MCF7 > 100 µM | PC-3 > 100 µM | HT-29 > 100 µM | T47D > 100 µM | HOP-92 > 100 µM | A549 > 100 µM | IGROV-1 > 100 µM | 786-0 > 100 µM | HOP-62 > 100 µM | OVCAR-8 > 100 µM | NCI-H23 > 100 µM

Reference: ChEMBL document CHEMBL1201862, “PubChem BioAssay data set” (2004)
